Legend:
[1] = target: Recombinant human cathepsin C/DPP1; test: Inhibition effect test of DPP1 enzyme activity; format: biochemical; conditions: recombinant human cathepsin C/DPP1, Gly-Arg-AMC substrate 12.5 μM, 25° C. 60 minutes; read-out: IC50, inhibitory activity on DPP1 enzyme
Protocol: Experimental Example 1: Inhibition Effect Test of DPP1 Enzyme Activity
Recombinant human cathepsin C/DPP1 was purchased from R&D Systems;
Recombinant human cathepsin L (rhCathepsin L) was purchased from R&D Systems;
Gly-Arg-AMC (hydrochloride) was purchased from CAYMAN CHEMICAL COMPANY.
1× activation buffer: 5 mM DTT 0.01% (V/V) Triton X-100 (preparation for current use);
1× assay buffer: 50 mM NaCl 5 mM DTT 0.01% (V/V) Triton X-100 (preparation for current use);
1× activation buffer was used to dilute recombinant human cathepsin C/DPP1 enzyme and recombinant human cathepsin L (rhCathepsin L) enzyme to concentrations of 2 ng/μL and 0.4 ng/μL, respectively; equal volume of two working solutions of enzyme was taken, mixed well and incubated at 25° C. for 60 minutes;
the compounds to be tested were 5-fold diluted with a multi-channel pipette to the 8th concentration, i.e., diluted from 1 mM to 12.8 nM. Then 1× experimental buffer was used to dilute each compound to be tested by gradient into a 4% DMSO working solution. The working solution was added to corresponding wells for 5 μL/well, and duplicate experiment was set. The mixture was centrifuged at 1000 rpm for 1 minute;
5 μL/well of the enzyme mixture after incubation was taken and added to the white microwell plate. At this time, the amount of DPP1 enzyme in each well was 5 ng; 1× experimental buffer in 5 μL/well was added to the blank control well;
Gly-Arg-AMC (hydrochloride) was diluted to 25 μM with 1× assay buffer. The diluted mixture in 10 μL/well was added to a white microwell plate. The substrate concentration was 12.5 μM at this time, and the microplate was centrifuged in a centrifuge at 1000 rpm for 1 minute. […] After centrifugation, the microplate was covered with membrane and incubated at 25° C. for 60 minutes;
after incubation, fluorescence detection was performed using a multi-label analyzer with an excitation wavelength of 360 nm and an emission wavelength of 460 nm.
Using the equation (Sample−Min)/(Max−Min)×100% to convert the raw data into enzyme activity, the IC50 value might be obtained by curve fitting with four parameters (obtained by “log (inhibitor) vs. response—Variable slope” mode in GraphPad Prism).
Max: Contains recombinant human cathepsin C/DPP1, recombinant human cathepsin L (rhCathepsin L), and Gly-Arg-AMC (hydrochloride)
Min: No recombinant human cathepsin C/DPP1 and recombinant human cathepsin L (rhCathepsin L)

[2] = Rat tissue (bone marrow) distribution; format: in vivo; conditions: SD rats
Protocol: Experimental Example 6: Evaluation of Rat Tissue (Bone Marrow) Distribution of the Compound of the Present Disclosure
Experimental purpose: To test the distribution of the compound in the bone marrow and plasma of SD rats
Experimental materials: SD rats (male, 200 to 300 g, 6 to 10 weeks old, Beijing Vital River)
The content of the compound in the bone marrow and plasma of rats after oral administration was tested according to the standard protocol. In the experiment, the candidate compound was formulated into a clear solution. The vehicle was 5:95 DMSO and 10% hydroxypropyl β-cyclodextrin aqueous solution. A dose of 5 mg/kg was given to rats as a single oral administration. The whole blood samples and bone marrow samples were collected at 0.25, 0.5, 1, 2, 4, 6, and 24 hours, respectively. The whole blood samples were collected in commercial EDTA2K anticoagulant tubes. The tubes were centrifuged at 6000 g for 3 minutes. The supernatant was separated to obtain plasma samples. The acetonitrile solution containing internal standard was added to precipitate protein. The mixture was centrifuged. The supernatant was take out. An equal volume of water was added. After mixing well, plasma concentration was quantitatively analyzed by LC-MS/MS analysis method, and the area under the drug-time curve was calculated. The left femur of the rat was taken, and the muscle was removed. One end was cut off, placed in a centrifuge tube with the open end downwards. The tubes were centrifuged at 8000 rpm for 1 minute. The precipitate was bone marrow. The bone marrow was mixed with 50% methanol-water, grinded into a homogenate. The homogenate was added with an acetonitrile solution containing an internal standard to precipitate protein. The mixture was centrifuged to take the supernatant, added with an equal volume of water. After mixing well, the drug concentration in bone marrow was quantitatively analyzed by LC-MS/MS analysis method, and the area under the drug-time curve was calculated.
The calculation formula of bone marrow/plasma distribution coefficient is: Bone marrow/Plasma Ratio=bone marrow AUC0-last/plasma AUC0-last.

[3] = bone marrow, 5 mg/kg single oral administration

IC50 [1]: 3.57 nM
Bone marrow/plasma distribution coefficient ([2]; 5 mg/kg oral, bone marrow AUC0-last/plasma AUC0-last): 7.0
Bone marrow Area under drug-time curve AUC0-last PO [2, 3]: 68856 nmol·h/kg
Bone marrow Peak concentration Cmax [2, 3]: 5014 nmol/kg
Plasma Area under drug-time curve AUC0-last PO ([2]; plasma, 5 mg/kg single oral administration): 9.902 µM·h
Cmax ([2]; plasma, 5 mg/kg single oral administration, read-out: Plasma Peak concentration Cmax): 1020 nM
Compound: Cn1ncc2ccc(-c3ccc(C[C@@H](C#N)NC(=O)[C@@H]4CNCCCO4)c(F)c3)cc21 [Compound 8]

Reference: patent publication US20240150335A1, “FUSED RING DERIVATIVES CONTAINING 1,4-OXAZEPANE” (MEDSHINE DISCOVERY INC., priority 2021, published 2024)
